Patent publication US20260138958A1, “SUBSTITUTED N-PHENYLURACILS AND SALTS THEREOF, AND USE THEREOF AS HERBICIDAL ACTIVE SUBSTANCES” (Bayer Aktiengesellschaft, priority 2022, published 2026)

Legend:
Type in all cases: in vivo
[1] = test system: Abutilon theophrasti (ABUTH); test: Post-emergence herbicidal action, greenhouse pot test
Experimental: (§1) Seeds of monocotyledonous and dicotyledonous weeds and crop plants were placed in sandy loam in plastic or wood-fibre pots, covered with soil and cultivated in a greenhouse under controlled growth conditions. 2 to 3 weeks after sowing, the test plants were treated at the one-leaf stage. The compounds of the invention, formulated in the form of wettable powders (WP) or as emulsion concentrates (EC), were then sprayed onto the green parts of the plants as aqueous suspension or emulsion with addition of 0.5% additive at a water application rate of 600 l/ha (converted). After the test plants had been kept in the greenhouse under optimum growth conditions for about 3 weeks, the activity of the preparations was rated visually in comparison to untreated controls. For example, 100% activity=the plants have died, 0% activity=like control plants.

[2] = test system: Alopecurus myosuroides (ALOMY); test: as above
Experimental: as §1

[3] = test system: Amaranthus retroflexus (AMARE); test: as above
Experimental: as §1

[4] = test system: Bassia scoparia (KCHSC); test: as above
Experimental: as §1

[5] = test system: Digitaria sanguinalis (DIGSA); test: as above
Experimental: as §1

[6] = test system: Echinochloa crus-galli (ECHCG); test: as above
Experimental: as §1

[7] = test system: Pharbitis purpurea (PHBPU); test: as above
Experimental: as §1

[8] = test system: Polygonum convolvulus (POLCO); test: as above
Experimental: as §1

[9] = test system: Setaria viridis (SETVI); test: as above
Experimental: as §1

[10] = test system: Tripleurospermum inodorum (MATIN); test: as above
Experimental: as §1

[11] = test system: Veronica persica (VERPE); test: as above
Experimental: as §1

[12] = test system: Viola tricolor (VIOTR); test: as above
Experimental: as §1

[13] = test system: Lolium rigidum (LOLRI); test: as above
Experimental: as §1

[14] = test system: Triticum aestivum (TRZAS); test: Post-emergence crop plant compatibility, greenhouse pot test; details: Triticum aestivum, in vivo
Experimental: as §1
The observed effects on selected crop plants are reported here in comparison to the untreated controls (values in %).

## Cn1c(C(F)(F)F)cc(=O)n(-c2cc(Oc3ccccc3OCC(=O)OCC3(C)CC3)c(Cl)cc2F)c1=O [I.7-5]
[1]
  Post-emergence effect at 1.25 g/ha against ABUTH in %: 100%
[1]; 5 g/ha
  Post-emergence effect at 5 g/ha against ABUTH in %: 100%
[1]; 20 g/ha
  Post-emergence effect at 20 g/ha against ABUTH in %: 100%
[2]; 5 g/ha
  Post-emergence effect at 5 g/ha against ALOMY in %: 80%
[2]; 20 g/ha
  Post-emergence effect at 20 g/ha against ALOMY in %: 100%
[3]; 1.25 g/ha
  Post-emergence effect at 1.25 g/ha against AMARE in %: 100%
[3]; 5 g/ha
  Post-emergence effect at 5 g/ha against AMARE in %: 100%
[3]; 20 g/ha
  Post-emergence effect at 20 g/ha against AMARE in %: 100%
[4]
  Post-emergence effect at 1.25 g/ha against KCHSC in %: 100%
  Post-emergence effect at 5 g/ha against KCHSC in %: 100%
  Post-emergence effect at 20 g/ha against KCHSC in %: 100%
[5]
  Post-emergence effect at 5 g/ha against DIGSA in %: 100%
  Post-emergence effect at 20 g/ha against DIGSA in %: 100%
[6]
  Post-emergence effect at 5 g/ha against ECHCG in %: 100%
[6]; 20 g/ha
  Post-emergence effect at 20 g/ha against ECHCG in %: 100%
[7]; 1.25 g/ha
  Post-emergence effect at 1.25 g/ha against PHBPU in %: 100%
[7]; 5 g/ha
  Post-emergence effect at 5 g/ha against PHBPU in %: 100%
[7]; 20 g/ha
  Post-emergence effect at 20 g/ha against PHBPU in %: 100%
[8]; 20 g/ha
  Post-emergence effect at 20 g/ha against POLCO in %: 100%
[9]
  Post-emergence effect at 1.25 g/ha against SETVI in %: 100%
[9]; 5 g/ha
  Post-emergence effect at 5 g/ha against SETVI in %: 100%
[9]; 20 g/ha
  Post-emergence effect at 20 g/ha against SETVI in %: 100%
[10]; 5 g/ha
  Post-emergence effect at 5 g/ha against MATIN in %: 100%
[10]; 20 g/ha
  Post-emergence effect at 20 g/ha against MATIN in %: 100%
[11]
  Post-emergence effect at 1.25 g/ha against VERPE in %: 100%
[11]; 5 g/ha
  Post-emergence effect at 5 g/ha against VERPE in %: 100%
[11]; 20 g/ha
  Post-emergence effect at 20 g/ha against VERPE in %: 100%
[12]
  Post-emergence effect at 1.25 g/ha against VIOTR in %: 100%
  Post-emergence effect at 5 g/ha against VIOTR in %: 100%
[12]; 20 g/ha
  Post-emergence effect at 20 g/ha against VIOTR in %: 100%

## Cn1c(C(F)(F)F)cc(=O)n(-c2cc(Oc3ccccc3OCC(=O)OCC3CCC3)c(Cl)cc2F)c1=O [I.7-10, Cyclobutylmethyl (2-{2-chloro-4-fluoro-5-[3-methyl-2,6-dioxo-4-(trifluoromethyl)-3,6-dihydropyrimidin-1(2H)-yl]phenoxy}phenoxy)acetate]
[1]
  Post-emergence effect at 1.25 g/ha against ABUTH in %: 100%
[1]; Abutilon theophrasti, 504 h, 5 g/ha, read-out: Post-emergence effect at 5 g/ha against ABUTH in %
  pest or weed control at 5 g/ha: 100%
[1]; Abutilon theophrasti, 504 h, 20 g/ha, read-out: Post-emergence effect at 20 g/ha against ABUTH in %
  pest or weed control at 20 g/ha: 100%
[2]; Alopecurus myosuroides, 504 h, 20 g/ha, read-out: Post-emergence effect at 20 g/ha against ALOMY in %
  pest or weed control at 20 g/ha: 100%
[3]; Amaranthus retroflexus, 504 h, 1.25 g/ha, read-out: Post-emergence effect at 1.25 g/ha against AMARE in %
  pest or weed control at 1.25 g/ha: 100%
[3]; Amaranthus retroflexus, 504 h, 5 g/ha, read-out: Post-emergence effect at 5 g/ha against AMARE in %
  pest or weed control at 5 g/ha: 100%
[3]; Amaranthus retroflexus, 504 h, 20 g/ha, read-out: Post-emergence effect at 20 g/ha against AMARE in %
  pest or weed control at 20 g/ha: 100%
[4]
  Post-emergence effect at 1.25 g/ha against KCHSC in %: 100%
  Post-emergence effect at 5 g/ha against KCHSC in %: 100%
  Post-emergence effect at 20 g/ha against KCHSC in %: 100%
[5]; 1.25 g/ha
  Post-emergence effect at 1.25 g/ha against DIGSA in %: 80%
[5]
  Post-emergence effect at 5 g/ha against DIGSA in %: 100%
  Post-emergence effect at 20 g/ha against DIGSA in %: 100%
[6]; 1.25 g/ha
  Post-emergence effect at 1.25 g/ha against ECHCG in %: 100%
[6]
  Post-emergence effect at 5 g/ha against ECHCG in %: 100%
[6]; Echinochloa crus-galli, 504 h, 20 g/ha, read-out: Post-emergence effect at 20 g/ha against ECHCG in %
  pest or weed control at 20 g/ha: 100%
[13]
  Post-emergence effect at 20 g/ha against LOLRI in %: 100%
[7]; Ipomoea purpurea, 504 h, 5 g/ha, read-out: Post-emergence effect at 5 g/ha against PHBPU in %
  pest or weed control at 5 g/ha: 100%
[7]; Ipomoea purpurea, 504 h, 20 g/ha, read-out: Post-emergence effect at 20 g/ha against PHBPU in %
  pest or weed control at 20 g/ha: 100%
[8]; 1.25 g/ha
  Post-emergence effect at 1.25 g/ha against POLCO in %: 100%
[8]; Fallopia convolvulus, 504 h, 5 g/ha, read-out: Post-emergence effect at 5 g/ha against POLCO in %
  pest or weed control at 5 g/ha: 100%
[8]; Fallopia convolvulus, 504 h, 20 g/ha, read-out: Post-emergence effect at 20 g/ha against POLCO in %
  pest or weed control at 20 g/ha: 100%
[9]
  Post-emergence effect at 1.25 g/ha against SETVI in %: 100%
[9]; Setaria viridis, 504 h, 5 g/ha, read-out: Post-emergence effect at 5 g/ha against SETVI in %
  pest or weed control at 5 g/ha: 100%
[9]; Setaria viridis, 504 h, 20 g/ha, read-out: Post-emergence effect at 20 g/ha against SETVI in %
  pest or weed control at 20 g/ha: 100%
[10]; Tripleurospermum inodorum, 504 h, 20 g/ha, read-out: Post-emergence effect at 20 g/ha against MATIN in %
  pest or weed control at 20 g/ha: 100%
[11]
  Post-emergence effect at 1.25 g/ha against VERPE in %: 100%
[11]; Veronica persica, 504 h, 5 g/ha, read-out: Post-emergence effect at 5 g/ha against VERPE in %
  pest or weed control at 5 g/ha: 100%
[11]; Veronica persica, 504 h, 20 g/ha, read-out: Post-emergence effect at 20 g/ha against VERPE in %
  pest or weed control at 20 g/ha: 100%
[12]
  Post-emergence effect at 1.25 g/ha against VIOTR in %: 100%
  Post-emergence effect at 5 g/ha against VIOTR in %: 100%
[12]; Viola tricolor, 504 h, 20 g/ha, read-out: Post-emergence effect at 20 g/ha against VIOTR in %
  pest or weed control at 20 g/ha: 100%
[14]
  Post-emergence effect at 1.25 g/ha against TRZAS in %: 20%

## Cn1c(C(F)(F)F)cc(=O)n(-c2cc(Oc3ccccc3OCC(=O)OC3CCCCCC3)c(Cl)cc2F)c1=O [reference compound]
[6]; Table B5 comparison, application rate 1.25 g/ha
  ECHCG (efficacy in %): 80%
